In PubChem BioAssay AID1963440 (Molecular Pharmacology Branch, DTP, NCI, 2024):
Where “and” joins values, the source holds several entries; their conditions need not be identical. Equal values may be shown once.

Test system: NCI-H1417 complex spheroids, growth % test/control
Experiment: Anticancer human tumor NCI-H1417 cell line growth inhibition [Asc];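 note: spheroids exposed to compounds for 7 days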;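 for viability, T/C: 100% = DMSO vehicle control wells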
Conditions: for viability, T/C: stronger effect = lower value
Procedure, shortened: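 Tumor cells were grown as complex spheroids with human endothelial cells (HUVEC) and human mesenchymal stem cells as stroma. Agents were tested alone and in combination, in half-log steps down from the clinical Cmax, or from 10 microM where Cmax was unknown.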

[1] = curve of first compound, second compound 0.03 µM
[2] = curve of first compound, second compound 0.0949 µM
[3] = curve of first compound, second compound 0.3 µM
[4] = curve of first compound, second compound 0.949 µM
[5] = curve of first compound, second compound 3 µM
[6] = second compound 0.03 µM, first compound 0.0316 µM
[7] = second compound 0.03 µM, first compound 0.1 µM
[8] = second compound 0.03 µM, first compound 0.316 µM
[9] = second compound 0.03 µM, first compound 1 µM
[10] = second compound 0.0949 µM, first compound 0.0316 µM
[11] = second compound 0.0949 µM, first compound 0.1 µM
[12] = second compound 0.0949 µM, first compound 0.316 µM
[13] = second compound 0.0949 µM, first compound 1 µM
[14] = second compound 0.3 µM, first compound 0.0316 µM
[15] = second compound 0.3 µM, first compound 0.1 µM
[16] = second compound 0.3 µM, first compound 0.316 µM
[17] = second compound 0.3 µM, first compound 1 µM
[18] = second compound 0.949 µM, first compound 0.0316 µM
[19] = second compound 0.949 µM, first compound 0.1 µM
[20] = second compound 0.949 µM, first compound 0.316 µM
[21] = second compound 0.949 µM, first compound 1 µM
[22] = second compound 3 µM, first compound 0.0316 µM
[23] = second compound 3 µM, first compound 0.1 µM
[24] = second compound 3 µM, first compound 0.316 µM
[25] = second compound 3 µM, first compound 1 µM

COc1c(OCCCN2CCOCC2)ccc2c3n(c(=NC(=O)c4cnc(N)nc4)nc12)CCN3 + CCN1C(C(=O)NC23CCC(C(=O)O)(CC2)CC3)C(c2cccc(Cl)c2F)C2(C(=O)Nc3cc(Cl)ccc32)C12CCCCC2
IC50 [1]: > 1000 nM
IC50 [2]: > 1000 nM
IC50 [3]: > 1000 nM
IC50 [4]: 484 nM
IC50 [5]: 243 nM
viability, T/C (second compound 0.03 µM, first compound 0.00316 µM): 107%
viability, T/C (second compound 0.03 µM, first compound 0.01 µM): 114%
viability, T/C [6]: 95.8%
viability, T/C [7]: 100%
viability, T/C [8]: 96.7%
viability, T/C [9]: 59.2%
viability, T/C (second compound 0.0949 µM, first compound 0.00316 µM): 94.6%
viability, T/C (second compound 0.0949 µM, first compound 0.01 µM): 96.7%
viability, T/C [10]: 87.2%
viability, T/C [11]: 90.3%
viability, T/C [12]: 80.5%
viability, T/C [13]: 58.7%
viability, T/C (second compound 0.3 µM, first compound 0.00316 µM): 93.2%
viability, T/C (second compound 0.3 µM, first compound 0.01 µM): 93.6%
viability, T/C [14]: 81.2%
viability, T/C [15]: 74.8%
viability, T/C [16]: 57.6%
viability, T/C [17]: 51.5%
viability, T/C (second compound 0.949 µM, first compound 0.00316 µM): 89.6%
viability, T/C (second compound 0.949 µM, first compound 0.01 µM): 92.2%
viability, T/C [18]: 81%
viability, T/C [19]: 64.9%
viability, T/C [20]: 55.8%
viability, T/C [21]: 43.6%
viability, T/C (second compound 3 µM, first compound 0.00316 µM): 92.4%
viability, T/C (second compound 3 µM, first compound 0.01 µM): 89.8%
viability, T/C [22]: 86.7%
viability, T/C [23]: 63.1%
viability, T/C [24]: 47.7%
viability, T/C [25]: 36%

C=CC(=O)N1CCN(c2nc(=O)n(-c3c(C)ccnc3C(C)C)c3nc(-c4c(O)cccc4F)c(F)cc23)C(C)C1 (configuration not stated) + Cc1c(S(C)(=O)=O)c(-c2cc(F)cc(N3CCN(c4ccc(NS(=O)(=O)c5ccc(NC(CCN6CCC(C(=O)OCCCP(=O)(O)O)CC6)CSc6ccccc6)c(S(=O)(=O)C(F)(F)F)c5)cc4)CC3)c2)c(-c2ccc(Cl)cc2)n1C(C)C
IC50 (curve of first compound, second compound 0.1 µM): > 10000 nM
IC50 (curve of first compound, second compound 0.316 µM): 3960 nM
IC50 (curve of first compound, second compound 1 µM): < 31.6 nM
IC50 (curve of first compound, second compound 3.16 µM): < 31.6 nM
IC50 (curve of first compound, second compound 10 µM): < 31.6 nM
viability, T/C (second compound 0.1 µM, first compound 0.0316 µM): 79.9%
viability, T/C (second compound 0.1 µM, first compound 0.1 µM): 97.7%
viability, T/C (second compound 0.1 µM, first compound 0.316 µM): 94%
viability, T/C (second compound 0.1 µM, first compound 1 µM): 88.7%
viability, T/C (second compound 0.1 µM, first compound 3.16 µM): 79.5%
viability, T/C (second compound 0.1 µM, first compound 10 µM): 76.5%
viability, T/C (second compound 0.316 µM, first compound 0.0316 µM): 50.7%
viability, T/C (second compound 0.316 µM, first compound 0.1 µM): 52.8%
viability, T/C (second compound 0.316 µM, first compound 0.316 µM): 59.2%
viability, T/C (second compound 0.316 µM, first compound 1 µM): 55.8%
viability, T/C (second compound 0.316 µM, first compound 3.16 µM): 60.4%
viability, T/C (second compound 0.316 µM, first compound 10 µM): 26.5%
viability, T/C (second compound 1 µM, first compound 0.0316 µM): 12.8%
viability, T/C (second compound 1 µM, first compound 0.1 µM): 19%
viability, T/C (second compound 1 µM, first compound 0.316 µM): 19.2%
viability, T/C (second compound 1 µM, first compound 1 µM): 27.2%
viability, T/C (second compound 1 µM, first compound 3.16 µM): 15.7%
viability, T/C (second compound 1 µM, first compound 10 µM): 6.31%
viability, T/C (second compound 3.16 µM, first compound 0.0316 µM): 3.89%
viability, T/C (second compound 3.16 µM, first compound 0.1 µM): 4.22%
viability, T/C (second compound 3.16 µM, first compound 0.316 µM): 4.64%
viability, T/C (second compound 3.16 µM, first compound 1 µM): 3.72%
viability, T/C (second compound 3.16 µM, first compound 3.16 µM): 3.98%
viability, T/C (second compound 3.16 µM, first compound 10 µM): 3.94%
viability, T/C (second compound 10 µM, first compound 0.0316 µM): 2.86%
viability, T/C (second compound 10 µM, first compound 0.1 µM): 2.89%
viability, T/C (second compound 10 µM, first compound 0.316 µM): 3.43%
viability, T/C (second compound 10 µM, first compound 1 µM): 2.4%
viability, T/C (second compound 10 µM, first compound 3.16 µM): 3.1%
viability, T/C (second compound 10 µM, first compound 10 µM): 3.85%

Cn1ncnc1[C@H]1c2n[nH]c(=O)c3cc(F)cc(c23)N[C@@H]1c1ccc(F)cc1
viability, T/C (compound 0.000316 µM): 101% and 113% and 97.4%
viability, T/C (compound 0.001 µM): 90.8% and 116% and 85%
viability, T/C (compound 0.00316 µM): 81.6% and 87.3% and 69.7%
viability, T/C (compound 0.01 µM): 70.8% and 75.9% and 67.2%
viability, T/C (compound 0.0316 µM): 56.4% and 77% and 57%
viability, T/C (compound 0.1 µM): 44% and 79.8% and 30.6%
IC50 (curve of compound): 58.2 nM and > 100 nM and 32.1 nM

O=C(c1cc(Cc2n[nH]c(=O)c3ccccc23)ccc1F)N1CCN(C(=O)C2CC2)CC1 + CCN1C(C(=O)NC23CCC(C(=O)O)(CC2)CC3)C(c2cccc(Cl)c2F)C2(C(=O)Nc3cc(Cl)ccc32)C12CCCCC2
IC50 [1]: 2860 nM
IC50 [2]: 3970 nM
IC50 [3]: 2690 nM
IC50 [4]: 2960 nM
IC50 [5]: 3210 nM
viability, T/C [6]: 98.2%
viability, T/C [7]: 96.3%
viability, T/C [8]: 107%
viability, T/C [9]: 82.3%
viability, T/C (second compound 0.03 µM, first compound 3.16 µM): 48%
viability, T/C (second compound 0.03 µM, first compound 10 µM): 33.6%
viability, T/C [10]: 101%
viability, T/C [11]: 110%
viability, T/C [12]: 88.7%
viability, T/C [13]: 84.8%
viability, T/C (second compound 0.0949 µM, first compound 3.16 µM): 53.6%
viability, T/C (second compound 0.0949 µM, first compound 10 µM): 29.9%
viability, T/C [14]: 101%
viability, T/C [15]: 103%
viability, T/C [16]: 98%
viability, T/C [17]: 76.8%
viability, T/C (second compound 0.3 µM, first compound 3.16 µM): 46.1%
viability, T/C (second compound 0.3 µM, first compound 10 µM): 31.2%
viability, T/C [18]: 95.3%
viability, T/C [19]: 105%
viability, T/C [20]: 82.9%
viability, T/C [21]: 76.2%
viability, T/C (second compound 0.949 µM, first compound 3.16 µM): 47.3%
viability, T/C (second compound 0.949 µM, first compound 10 µM): 29.8%
viability, T/C [22]: 94%
viability, T/C [23]: 90.1%
viability, T/C [24]: 95.9%
viability, T/C [25]: 74.8%
viability, T/C (second compound 3 µM, first compound 3.16 µM): 51.5%
viability, T/C (second compound 3 µM, first compound 10 µM): 28.3%
